Data on eight compounds can be found in PubChem BioAssay (NCI).

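Where inhibition never reached the appropriate level, the endpoint shown equals the highest concentration tested. Otherwise, values were interpolated linearly from a five-concentration, 48-hour dose response in 96-well plates. GI50 is the concentration that inhibits growth by half. TGI marks complete inhibition of growth.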

Among the test systems are NCI-H23 lung; HL-60(TB) leukemia; SF-268 CNS; OVCAR-3 ovarian; LOX IMVI melanoma; HCC-2998 colon; SF-295 CNS; SW-620 colon; UACC-62 melanoma; SK-MEL-28 melanoma.
Assay in all cases: NCI tumour cell line growth inhibition, 48 h

Turning to `Oc1[nH]c2ccccc2c1/C=c1/ccc2c(c1)N=C(c1cc(F)cc(F)c1)N=2`, the GI50 is 4.13 µM with NCI-H23 lung; 12.6 µM in the assay on HL-60(TB) leukemia; 9.44 µM with SF-268 CNS; 5 µM with OVCAR-3 ovarian; 3.94 µM with LOX IMVI melanoma; 5.65 µM with HCC-2998 colon. Besides, the GI50 is 2.84 µM in the assay on SF-295 CNS, 3.55 µM in the assay with SW-620 colon, 4.18 µM in the assay with UACC-62 melanoma and 7.24 µM in the assay on SK-MEL-28 melanoma. In addition, the TGI came to 17.7 µM in the assay on NCI-H23 lung; 40.5 µM in the assay with HL-60(TB) leukemia; 25.6 µM in the assay with SF-268 CNS; 17.9 µM with OVCAR-3 ovarian; 18.9 µM in the assay with LOX IMVI melanoma; 20.7 µM in the assay with HCC-2998 colon. The TGI in the assay on SF-295 CNS was 10.9 µM; with SW-620 colon, 15.8 µM; with UACC-62 melanoma, 20.3 µM; in the assay on SK-MEL-28 melanoma, 20.2 µM.
As for `Cc1cc(Cl)ccc1Nc1nc2c(s1)C(=O)c1ccccc1C2=O`, the TGI with NCI-H23 lung was determined as 3.96 µM; in the assay on HL-60(TB) leukemia, 2.68 µM; in the assay with SF-268 CNS, 11.3 µM; in the assay on OVCAR-3 ovarian, 4.6 µM; in the assay with LOX IMVI melanoma, 3.12 µM; with HCC-2998 colon, 16.1 µM. In addition, the TGI with SF-295 CNS was determined as 24.2 µM; in the assay with SW-620 colon, 4.01 µM; in the assay with UACC-62 melanoma it was 7.41 µM; in the assay with SK-MEL-28 melanoma, 4.14 µM.
As to `Nc1nc(-c2ccc3ccccc3c2)cc(-c2cc(-c3ccc4ccccc4c3)nc(N)n2)n1`, the TGI in the assay with NCI-H23 lung, with HL-60(TB) leukemia, in the assay on SF-268 CNS, with OVCAR-3 ovarian, with LOX IMVI melanoma and in the assay on HCC-2998 colon was more than 100 µM in each case. Further, the TGI in the assay with SF-295 CNS, in the assay with SW-620 colon, in the assay with UACC-62 melanoma and with SK-MEL-28 melanoma was more than 100 µM in each case.
As to `Cc1cc2nc3c4cc([N+](=O)[O-])ccc4n(CCN(C)C)c3nc2cc1C`, the GI50 in the assay with NCI-H23 lung is 0.501 µM; in the assay with HL-60(TB) leukemia it was 0.622 µM; in the assay with SF-268 CNS, 0.787 µM; with OVCAR-3 ovarian, 0.59 µM; in the assay on LOX IMVI melanoma, 0.28 µM; in the assay with HCC-2998 colon, 0.683 µM. In addition, the GI50 in the assay on SF-295 CNS is 0.388 µM; in the assay on SW-620 colon it was 0.301 µM; with UACC-62 melanoma, 0.594 µM; in the assay on SK-MEL-28 melanoma, 0.967 µM. The TGI in the assay with NCI-H23 lung was determined as 2.58 µM; in the assay on HL-60(TB) leukemia it was 3.97 µM; in the assay with SF-268 CNS, 6.92 µM; in the assay on OVCAR-3 ovarian it was 5.23 µM; in the assay with LOX IMVI melanoma it was 1.19 µM; with HCC-2998 colon it was 2.34 µM. Further, the TGI in the assay with SF-295 CNS is 1.79 µM; in the assay with SW-620 colon it was 7.19 µM; in the assay with UACC-62 melanoma, 2.13 µM; in the assay with SK-MEL-28 melanoma, 2.48 µM.
As to `Cn1cc(-c2ccc3nnc(C(F)(F)c4ccc5ncccc5c4)n3n2)cn1`, the GI50 in the assay on NCI-H23 lung is 66 µM; with HL-60(TB) leukemia, more than 100 µM; with SF-268 CNS, 50.7 µM; in the assay with OVCAR-3 ovarian, 80.5 µM; in the assay on LOX IMVI melanoma, 55.5 µM; with HCC-2998 colon it was more than 100 µM. Moreover, the GI50 with SF-295 CNS is 3.82 µM; in the assay on SW-620 colon, more than 95.8 µM; in the assay on UACC-62 melanoma, 66.1 µM; in the assay on SK-MEL-28 melanoma it was more than 85.8 µM. The TGI in the assay with NCI-H23 lung, in the assay on HL-60(TB) leukemia, in the assay on SF-268 CNS, in the assay with OVCAR-3 ovarian, in the assay with LOX IMVI melanoma and with HCC-2998 colon was more than 100 µM throughout. In addition, the TGI in the assay with SF-295 CNS, in the assay with SW-620 colon, in the assay on UACC-62 melanoma and in the assay on SK-MEL-28 melanoma was more than 100 µM in each case.
In the case of `[Au+].c1c[n-]cn1.c1ccc([PH+](c2ccccc2)c2ccccc2)cc1`, the GI50 in the assay on NCI-H23 lung was 5.85 µM; in the assay with HL-60(TB) leukemia it was 1.66 µM; in the assay on SF-268 CNS, 3.32 µM; with OVCAR-3 ovarian it was 2.43 µM; with LOX IMVI melanoma, 4.03 µM; in the assay with HCC-2998 colon, 13.8 µM. The GI50 with SF-295 CNS is 11.8 µM; in the assay with SW-620 colon it was 1.81 µM; in the assay on UACC-62 melanoma, 5.17 µM; in the assay on SK-MEL-28 melanoma it was 2.29 µM. The TGI in the assay on NCI-H23 lung turned out to be 25.1 µM; with HL-60(TB) leukemia it was 4.81 µM; in the assay with SF-268 CNS, 28.3 µM; with OVCAR-3 ovarian, 5.2 µM; in the assay with LOX IMVI melanoma, 15.2 µM; in the assay with HCC-2998 colon it was 30.5 µM. Besides, the TGI with SF-295 CNS came out at 26.6 µM; in the assay on SW-620 colon, 3.28 µM; in the assay with UACC-62 melanoma, 29.2 µM; in the assay on SK-MEL-28 melanoma, 6.87 µM.
Turning to `COc1ccc(Nc2ncccc2C(=O)NCc2cn(Cc3cccc(Oc4ccccc4)c3)nn2)c(OC)c1`, the GI50 in the assay on NCI-H23 lung is 2.18 µM; with HL-60(TB) leukemia, 2.55 µM; with SF-268 CNS it was 3.34 µM; in the assay with OVCAR-3 ovarian it was 1.11 µM; in the assay with LOX IMVI melanoma, 2.54 µM; in the assay with HCC-2998 colon, 2.64 µM. For the same compound, the GI50 is 0.552 µM with SF-295 CNS, 2.35 µM in the assay on SW-620 colon, 1.19 µM with UACC-62 melanoma and 5.27 µM with SK-MEL-28 melanoma. For the same compound, the TGI is more than 100 µM with NCI-H23 lung; more than 22.7 µM with HL-60(TB) leukemia; more than 100 µM in the assay on SF-268 CNS; 4.78 µM in the assay on OVCAR-3 ovarian; more than 100 µM with LOX IMVI melanoma; more than 29 µM in the assay with HCC-2998 colon. For the same compound, the TGI is 22.2 µM in the assay on SF-295 CNS, more than 100 µM in the assay with SW-620 colon, more than 29.6 µM with UACC-62 melanoma and more than 100 µM in the assay with SK-MEL-28 melanoma.
As to `CC/C(=C(/CC)c1ccc(O)cc1)c1ccc(O)cc1`, the GI50 in the assay on NCI-H23 lung is 5.76 µM; in the assay on HL-60(TB) leukemia it was 4.07 µM; in the assay on SF-268 CNS, 5.5 µM; with OVCAR-3 ovarian, 2.72 µM; in the assay with LOX IMVI melanoma, 5.75 µM; in the assay on HCC-2998 colon, 10.7 µM. Also, the GI50 with SF-295 CNS was 2.73 µM; with SW-620 colon it was 3.88 µM; in the assay on UACC-62 melanoma it was 3.89 µM; in the assay with SK-MEL-28 melanoma it was 6.96 µM. The TGI with NCI-H23 lung is 23 µM; in the assay with HL-60(TB) leukemia it was more than 100 µM; in the assay on SF-268 CNS, 20.8 µM; with OVCAR-3 ovarian, 7 µM; with LOX IMVI melanoma, 19.4 µM; with HCC-2998 colon, 23.3 µM. For the same compound, the TGI with SF-295 CNS is 11.6 µM; with SW-620 colon, 14.5 µM; with UACC-62 melanoma it was 16.8 µM; with SK-MEL-28 melanoma it was 19.9 µM.
